In patent US8193200B2, “Antagonists of A2B adenosine receptors for treatment of inflammatory bowel disease” (University of Virginia Patent Foundation, priority 2007, dated 2012):

Columns and labels:
[1] = system: myeloperoxidase (MPO) activity, neutrophil infiltration into colon; assay: Myeloperoxidase assay in colon, DSS colitis; format: in vivo, mouse; details: DSS 3% 6 days, ATL-801 10 mg/kg in diet
Protocol: Neutrophil infiltration into colon was quantified by measuring myeloperoxidase (MPO) activity as described previously. One unit of MPO activity was defined as the amount that degraded 1 μmol of […] per minute at 25° C. The results were expressed as absorbance per μg of protein.

A2b receptor expression = assay: Western blot of A2b receptor in colonic lysates, DSS model; format: in vivo, mouse; details: baseline and after DSS treatment
Source text: Colonic tissue was homogenized and cell lysates were subjected to immunoblotting using anti-A2b receptor antibody (1:1000). β-tubulin was used as loading control. Blot shown is representative of 4 animals per condition.

T84 cells = assay: Flagellin-induced IL-8 secretion in T84 cells (ELISA); format: cell-based
[2] = system: C57BL/6 mice with DSS-induced colitis; assay: DSS-induced colitis: clinical and histological scoring, colon weight and length; format: in vivo, mouse; details: for Total Lesion Score (histological score): score range 0-11, DSS 9.1 ± 2.1
Protocol: Colitis was induced in male C57BL/6 mice by oral administration of DSS (molecular wt. 50000; ICN Biomedicals, Aurora, Ohio) at 3% (wt/vol) in tap water ad libitum for 6 days. Age-matched male wild-type C57BL6 mice receiving tap water served as controls. Mice were observed daily and evaluated for changes in body weight and development of clinical symptoms. Mice were given ATL-801 10 mg/Kg diet approximately 20 μg/day/mice) during the administration of DSS.
Assessment of body weights, stool consistency, and the presence of occult/gross blood by a guaic test (Hemoccult Sensa; Beckman Coulter, Fullerton, Calif.) were performed daily for each mouse. Colitis was quantified with a clinical and histological score, as described by Cooper, et. al. Clinical score was based on weight loss, stool consistency, and fecal blood (score range 0-12). Histological scoring was performed based on three variables, extent of inflammatory infiltrate, mucosal ulcers and severity of crypt (score range 0-11). IL-10^−/− mouse colon histological scoring (ranging from 0 to 4) was performed as described by Berg, et. al. to assess intestinal lesions and their severity.

IL-6 and MIP-2 mRNA = assay: Real time PCR of proinflammatory cytokine mRNA in colonic tissue, DSS model; format: in vivo, mouse
Protocol: In the DSS-model proinflammatory cytokines were measured by real time PCR. Total RNA was extracted from DSS treated, DSS+ATL-801 and control colonic tissue using the TRizol reagent. After quantification, a reverse transcription (RT) reaction was performed with 2 μg of each sample and oligo-dT primer, using the SuperScript First strand synthesis system for RT-PCR (Invitrogen, CA). The real-time iCycler sequence detection system (Bio-Rad) was used for the real-time RT-PCR. […] The 36B4 expression levels were used as reference, and fold-induction was calculated using a standard curve. For graphical representation of quantitative PCR data, raw cycle threshold values (Ct values) obtained for treated mice were deducted from the Ct value obtained for internal 36B4 transcript levels, using the Ct method as follows: ΔΔCT=(Ct Target−Ct 36B4)treatment−(Ct Target−Ct 36B4) no treatment, and the final data were derived from 2^−ΔΔCT. […] In IL-10−/− model proinflammatory cytokines were measured by ELISA in organ cultures. […] Supernatants were harvested after 24 hours, centrifuged and stored at −80° C. before IL-6 and keratinocyte derived chemokine, KC levels were measured by ELISA. […] IL-8 was measured in the supernatants by ELISA.

In the case of CCCn1c(=O)n(C2CC2)c(=O)c2[nH]c(-c3ccc(N(CC)C(=O)c4cccnc4)nc3)nc21 [ATL-801], the “MPO activity, DSS alone relative to antagonist and DSS” value [1] is reported as 5 fold, the “effect on A2b receptor expression (Western blot)” value (A2b receptor expression) is reported as “affected neither baseline level of A2b receptor nor DSS-induced increase in A2b receptor expression” and the “inhibition of flagellin-induced IL-8 secretion” value (T84 cells; ATL-801 100 μM 30 min, then flagellin 100 ng/ml 5 hours) is reported as 60%. For the same compound, the IL-8 in media, Flagellin+ATL-801 (T84 cells; ATL-801 100 μM, flagellin 100 ng/ml 5 h, control 206±18.5, flagellin 1126) was 769 ± 13.6 pg/mL, the IL-8 in media, ATL-801 alone (T84 cells; ATL-801 100 μM, no flagellin, control 206±18.5) was 101 ± 34.6 pg/mL and the “Ulceration (histological assessment)” value ([2]; 3% DSS 6 days + ATL 10 mg/Kg, DSS 2.6 ± 0.6) was 1.0 ± 1. For the same compound, the “Crypt Damage (histological assessment)” value ([2]; 3% DSS 6 days + ATL 10 mg/Kg, DSS 2.8 ± 1.5) was 1.9 ± 0.6, the “Inflammation (histological assessment)” value ([2]; 3% DSS 6 days + ATL 10 mg/Kg, DSS 3.7 ± 0.2) was 1.2 ± 0.2 and the “Total Lesion Score (histological score)” value ([2]; 3% DSS 6 days + ATL 10 mg/Kg) was 4.1 ± 1.8. The “Total Lesion Score (histological score)” value ([2]; 3% DSS 6 days + ATL 10 mg/Kg, listed as antagonist) was 4.1±1.8, the “clinical score (clinical disease activity score)” value ([2]; DSS 3% 6 days + ATL-801 10 mg/Kg in diet, score range 0-12, DSS alone 9.4±1.1) was 4.4±1.5 and the colon length ([2]; DSS 6 days + antagonist 10 mg/Kg, DSS alone 4.5±0.26 cm) was 6.04±0.16 cm. The colon weight ([2]; DSS + A2b antagonist, colon with solid stool pellets, DSS alone 0.26±0.03 g) was 0.48 ± 0.03 g, the stool consistency ([2]; DSS + A2b receptor antagonist, DSS-fed mice had watery diarrhea) was “solid stools” and the “colon length, group not administered DSS” value ([2]; antagonist without DSS, vehicle 6.5±0.25) was 7.5 cm. For the same compound, the “adverse effects on clinical score, ATL-801 alone” value ([2]; mice given ATL-801 alone, no DSS) was “did not show any adverse affects on clinical score”, the “histological signs of inflammation, water control group receiving antagonist” value ([2]; no DSS) was “not detected” and the “IL-6 mRNA in colonic mucosal tissue” value (IL-6 and MIP-2 mRNA; DSS + antagonist, normalized to 36B4, DSS 7.2±1.7) was 1.8±0.7 fold increase compared to untreated. For the same compound, the “MIP-2 mRNA levels” value (IL-6 and MIP-2 mRNA; DSS+ATL-801, fold increase over control (FIG. 5B), DSS 28.1±3.8) was 13.62±3.0.
